The data set can be described thus: method code SF-AS, from DOI: 10.1002/chin.198834177. Conditions: pH 5.6.
For the molecule `CCOC(=O)CC(C)n1nnc2ccccc21` (stereo not given), the logD is 2.27.

In turn, `CC(C)(C(N)=O)n1nnc2ccccc21` returned a logD of 0.76.

Molecule `CCC(C(N)=O)n1nc2ccccc2n1` (stereo not given) gave a logD of 1.25.

For the molecule `CCCCC(C(N)=O)n1nc2ccccc2n1` (stereo not given), the logD worked out at 2.28.

Consider `c1ccc2nn(C3CCCCC3)nc2c1`, for which the logD turned out to be 3.63.

For the molecule `CCCCC(C(=O)OCC)n1nnc2ccccc21` (stereo not given), the logD worked out at 3.32.

In turn, `CC(CC(N)=O)n1nc2ccccc2n1` (stereo not given) came in with a logD of 1.

For the molecule `CCCC(C(=O)OCC)n1nc2ccccc2n1` (stereo not given), the logD is 3.38.

With `CCOC(=O)C(C)(C)n1nnc2ccccc21`, the logD is 2.6.

In turn, `CCOC(=O)CC(C)n1nc2ccccc2n1` (stereo not given) came in with a logD of 2.7.

Consider `CCOCC(=O)CCC(C)n1nnc2ccccc21` (stereo not given), for which the logD is 2.64.

As to `CC(CC(N)=O)n1nnc2ccccc21` (stereo not given), the logD was found to be 0.75.

Molecule `CC(CCC(N)=O)n1nc2ccccc2n1` (stereo not given) registered a logD of 1.35.

`CCOC(=O)C(C)(C)n1nc2ccccc2n1` registered a logD of 2.98.

`CCOC(=O)C(CC)n1nnc2ccccc21` (stereo not given) gave a logD of 2.34.

On to `CCCC(C(N)=O)n1nc2ccccc2n1` (stereo not given), for which the logD came to 1.75.

Molecule `CCOC(=O)C(C)n1nnc2ccccc21` (stereo not given) came in with a logD of 1.87.

In the case of `CCOC(=O)CCC(C)n1nc2ccccc2n1` (stereo not given), the logD was 3.05.

For `CCCC(C(N)=O)n1nnc2ccccc21` (stereo not given), the logD came to 1.38.

Consider `CCCCC(C(N)=O)n1nnc2ccccc21` (stereo not given), for which the logD was determined as 1.88.

Consider `CC(C)(C(N)=O)n1nc2ccccc2n1`, for which the pH-dependent lipophilicity (logD) stood at 1.16.

For the molecule `CCOC(=O)C(C)n1nc2ccccc2n1` (stereo not given), the logD turned out to be 2.38.

`CCCCC(C(=O)OCC)n1nc2ccccc2n1` (stereo not given) showed a logD of 3.88.

As for `CCCC(C(=O)OCC)n1nnc2ccccc21` (stereo not given), the logD was determined as 2.82.

For the molecule `CCOC(=O)C(CC)n1nc2ccccc2n1` (stereo not given), the logD was found to be 2.88.

With `CCC(C(N)=O)n1nnc2ccccc21` (stereo not given), the logD was 0.88.

The molecule `CC(C(N)=O)n1nnc2ccccc21` (stereo not given) returned a logD of 0.35.

Turning to `CC(C(N)=O)n1nc2ccccc2n1` (stereo not given), the logD is 0.86.

Molecule `c1ccc2c(c1)nnn2C1CCCCC1` displayed a logD of 3.11.

The molecule `CC(CCC(N)=O)n1nnc2ccccc21` (stereo not given) yielded a pH-dependent lipophilicity (logD) of 1.15.

As a reminder, the logD is lipophilicity at a set pH, counting ionised and neutral species. Read a high logD as a more lipophilic compound.

For the origin of these results see the SangsterLogP compilation.
